# Results: US20210040073A1, “AZABICYCLO-SUBSTITUTED TRIAZOLE DERIVATIVE, PREPARATION METHOD THEREOF, AND APPLICATION OF SAME IN MEDICINE” (Jiangsu Hengrui Medicine Co., Ltd., priority 2016, published 2021)
# Legend:
# Format in all cases: cell-based
# human V1aR = biological target: T1, human V1aR (Homo sapiens, UniProt P37288); assay: Inhibition activity on human V1aR (Fluo-4 calcium assay, HEK293/human V1aR stably transfected cells, vasopressin 3 nM); details: calcium signal
# T1 construct: expressed in transfected cells
# T1 sequence (P37288 whole entry): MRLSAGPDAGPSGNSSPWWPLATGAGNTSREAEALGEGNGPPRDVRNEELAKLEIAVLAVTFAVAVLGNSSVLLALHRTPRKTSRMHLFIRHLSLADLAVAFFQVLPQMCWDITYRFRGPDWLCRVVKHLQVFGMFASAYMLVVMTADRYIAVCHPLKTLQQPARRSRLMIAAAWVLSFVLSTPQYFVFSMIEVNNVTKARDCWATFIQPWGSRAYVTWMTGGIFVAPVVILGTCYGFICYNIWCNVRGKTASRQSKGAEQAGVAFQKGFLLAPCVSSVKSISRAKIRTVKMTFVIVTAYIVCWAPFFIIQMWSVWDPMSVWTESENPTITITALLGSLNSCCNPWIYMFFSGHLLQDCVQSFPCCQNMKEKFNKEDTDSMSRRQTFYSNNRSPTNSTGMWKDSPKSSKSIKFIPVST
# Method: The inhibition effect of the compounds of the present invention on the activity of human V1aR protein expressed in HEK293/human V1aR stably transfected cells was determined by the following experimental method:
# The pcDNA3.1-V1aR plasmid was transferred into HEK293 cells with the Lipofectamine® 3000 transfection reagent; G418 was added on the next day to screen, and monoclonal cell lines were selected.
# (§1) HEK293/human V1aR stably transfected cells were inoculated in a 96-well plate with an inoculation density of 25,000 cells/well one day in advance. On the next day, a loading buffer containing Fluo-4 dye was formulated using the reagents in the Fluo-4 NW calcium assay kit, and the culture medium was then removed; 100 μl of the loading buffer containing Fluo-4 dye were added to each well, and the plate was incubated at 37° C. for 30 minutes. After that, the plate was moved to room temperature and equilibrated for 10 minutes. The compounds were formulated into concentration gradients of 10^6, 10^5, 10^4, 10^3, 10^2 and 10^1 nM. 1 μl of the compounds in each concentration was added to each well, and the plate was incubated at room temperature for 10 minutes. […] IC50 values of the compounds were calculated by Graphpad prism software using fluorescence signals corresponding to different concentrations.
# The inhibition activity of the compounds of the present invention on human V1aR was determined by the above test, and the obtained IC50 values are shown in Table 2.
# human V2R = biological target: T2, human V2R (Homo sapiens, UniProt P30518); assay: Inhibition activity on human V2R (cAMP HTRF assay, HEK293/human V2R pool cells, vasopressin)
# T2 construct: expressed in transfected cells; host or cells: HEK293 (G418-selected pool)
# T2 sequence (P30518 whole entry): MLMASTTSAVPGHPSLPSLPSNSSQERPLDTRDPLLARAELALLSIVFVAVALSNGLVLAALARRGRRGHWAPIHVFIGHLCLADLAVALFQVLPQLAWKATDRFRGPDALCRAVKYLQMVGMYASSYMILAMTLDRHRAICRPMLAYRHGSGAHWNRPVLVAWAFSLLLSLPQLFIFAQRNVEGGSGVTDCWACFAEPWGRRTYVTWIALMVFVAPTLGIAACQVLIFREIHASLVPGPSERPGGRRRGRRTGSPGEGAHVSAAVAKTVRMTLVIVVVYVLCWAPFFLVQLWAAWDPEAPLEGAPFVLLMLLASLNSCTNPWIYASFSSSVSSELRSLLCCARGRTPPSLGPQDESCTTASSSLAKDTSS
# Method: The inhibition effect of the compounds of the present invention on the activity of human V2R protein expressed in HEK293/human V2R cells was determined by the following experimental method:
# The pcDNA3.1-V2R plasmid was transferred into HEK293 cells with the Lipofectamine® 3000 transfection reagent; G418 was added on the next day, and the HEK293/human V2R pool cell lines were obtained.
# HEK293/human V2R pool cells were digested with the cell dissociation solution (enzyme-free), thereby dissociating the cells from the cell culture dish into individual cells. After completion, the cell solution was blown well, and centrifuged to remove the supernatant. The cells were re-suspended in the test buffer 1 (1×HBSS+20 mM HEPES+0.1% BSA) and counted. The cell density was adjusted to 1250 cells/5 μl, i.e., 2.5*10^5/ml.
# The compounds were formulated into a series of concentrations of 20 mM, 6.67 mM, 2.22 mM, 0.74 mM, 0.25 mM, 0.08 mM, 27.4 μM, 9.14 μM, 3.05 μM, 1.02 μM, 0.34 μM and 0 μM (DMSO) with pure DMSO. The compounds were then formulated into a 4-fold use concentration with the test buffer 2 (test buffer 1+1 mM IBMX).
# Agonist: 460 μM vasopressin was used as the mother liquor, formulated as a 2 μM solution with DMSO, which was then diluted to a 0.5 nM solution with the test buffer 2.
# Standard: The first point was 20 μl of a stock solution (2848 nM), which was diluted successively to a total of eleven concentrations in a 4-fold concentration gradient with the test buffer 1 from the second point.
# 1. The well-mixed cells were added to a 384-well plate (5 μl/well) without changing the tip.
# 2. The test compounds and positive compound formulated were added (2.5 μl/well), and the tips were changed.
# 3. The plate was centrifuged at 1000 rpm for 1 min, shaken for 30 sec to mix well, and incubated at room temperature for 30 min.
# 4. The standard curve wells were added with the test buffer 2 (5 μl/well).
# 5. The agonist formulated was added (2.5 μl/well), and the tips were changed; the plate was centrifuged at 1000 rpm for 1 min, shaken for 30 sec to mix well, and incubated at room temperature for 30 min.
# 6. cAMP-d2 (a component in the cAMP dynamic 2 kit) and Anti-cAMP-Eu-Cryptate (a component in the cAMP dynamic 2 kit) were formulated in the dark, which were then mixed well with cAMP lysate (a component in the cAMP dynamic 2 kit) in a ratio of 1:4. Each well was added with the formulated cAMP-d2 solution (5 μl/well), followed by addition of Anti-cAMP-Eu-Cryptate (5 μl/well). The plate was shaken for 30 sec to mix well, and incubated in the dark at room temperature for 1 h.
# 4) Plate reading: The HTRF signals were read by the PheraStar multi-function microplate reader.
# The data in this test was processed using the data processing software Graphpad Prism.
# The inhibition activity of the compounds of the present invention on human V2R was determined by the above test, and the obtained IC50 values are shown in Table 4.
# human V1bR = biological target: T3, human V1bR (Homo sapiens, UniProt P47901); assay: Inhibition activity on human V1bR (Fluo-4 calcium assay, HEK293/human V1bR pool cells, vasopressin 3 nM); details: calcium signal
# T3 construct: expressed in transfected cells; host or cells: HEK293 (G418-selected pool)
# T3 sequence (P47901 1-424): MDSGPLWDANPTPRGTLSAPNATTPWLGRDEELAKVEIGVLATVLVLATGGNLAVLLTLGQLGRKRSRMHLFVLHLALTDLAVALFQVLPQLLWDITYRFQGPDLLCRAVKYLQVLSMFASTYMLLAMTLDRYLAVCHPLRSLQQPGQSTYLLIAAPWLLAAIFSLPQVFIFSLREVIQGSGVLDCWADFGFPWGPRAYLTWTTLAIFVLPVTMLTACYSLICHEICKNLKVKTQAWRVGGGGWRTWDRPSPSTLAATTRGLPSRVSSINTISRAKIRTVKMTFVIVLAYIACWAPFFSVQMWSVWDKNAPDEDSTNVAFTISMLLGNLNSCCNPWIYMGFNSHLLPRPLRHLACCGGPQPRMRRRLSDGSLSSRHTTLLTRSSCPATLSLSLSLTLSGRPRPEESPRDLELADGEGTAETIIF
# Method: The inhibition effect of the compounds of the present invention on the activity of human V1bR protein expressed in HEK293/human V1bR cells was determined by the following experimental method:
# The pcDNA3.1-V1bR plasmid was transferred into HEK293 cells with the Lipofectamine® 3000 transfection reagent; G418 was added on the next day, and the HEK293/human V1bR pool cell lines were obtained.
# as §1, with “V1bR pool” for “V1aR stably transfected”
Compound,IC50 (human V1aR) [µM],IC50 (human V2R) [µM],IC50 (human V1bR) [µM]
"COc1ccc(-n2c(N3C[C@@H]4C[C@]4(c4ccc(F)cc4Cl)C3)nnc2C(F)(F)F)cn1 [Example 12, (1S,5R)-1-(2-Chloro-4-fluorophenyl)-3-(4-(6-methoxypyridin-3-yl)-5-(trifluoromethyl)-4H-1,2,4-triazol-3-yl)-3-azabicyclo[3.1.0]hexane]",3.6,29.5,11.7
"COc1ccc(-n2c(COCCF)nnc2N2C[C@@H]3C[C@]3(c3ccc(F)cc3Cl)C2)cn1 [Example 1, (1S,5R)-1-(2-Chloro-4-fluorophenyl)-3-(5-((2-fluoroethoxy)methyl)-4-(6-methoxypyridin-3-yl)-4H-1,2,4-triazol-3-yl)-3-azabicyclo[3.1.0]hexane]",1,21.4,24.5
"COCc1nnc(N2C[C@@H]3C[C@]3(c3ccc(F)cc3Cl)C2)n1-c1ccc(OC)nc1 [Example 9, (1S,5R)-1-(2-Chloro-4-fluorophenyl)-3-(5-(methoxymethyl)-4-(6-methoxypyridin-3-yl)-4H-1,2,4-triazol-3-yl)-3-azabicyclo[3.1.0]hexane]",2.9,32.6,37.6
"CCOCc1nnc(N2C[C@@H]3C[C@]3(c3ccc(F)cc3Cl)C2)n1-c1ccc(OC)nc1 [Example 6, (1S,5R)-1-(2-Chloro-4-fluorophenyl)-3-(5-(ethoxymethyl)-4-(6-methoxypyridin-3-yl)-4H-1,2,4-triazol-3-yl)-3-azabicyclo[3.1.0]hexane]",1.7,7.3,27.9
"COCc1nnc(N2C[C@@H]3C[C@]3(c3cccc(F)c3Cl)C2)n1-c1ccc(OC)nc1 [Example 4, (1S,5R)-1-(2-Chloro-3-fluorophenyl)-3-(5-(methoxymethyl)-4-(6-methoxypyridin-3-yl)-4H-1,2,4-triazol-3-yl)-3-azabicyclo[3.1.0]hexane]",3.8,25.7,59.4
